These results are taken from patent publication US4771062A, “Diaryl sulphide derivatives” (Bayer Aktiengesellschaft, priority 1986, dated 1988).

Data set [1] concerns the target T1, lipoxygenase activity of PMN (Rattus norvegicus, UniProt P12527).
T1 construct: lipoxygenase activity of PMN in rats; endogenous in cells; host or cells: rat PMN (polymorphonuclear leucocytes)
T1 sequence (P12527 1-673): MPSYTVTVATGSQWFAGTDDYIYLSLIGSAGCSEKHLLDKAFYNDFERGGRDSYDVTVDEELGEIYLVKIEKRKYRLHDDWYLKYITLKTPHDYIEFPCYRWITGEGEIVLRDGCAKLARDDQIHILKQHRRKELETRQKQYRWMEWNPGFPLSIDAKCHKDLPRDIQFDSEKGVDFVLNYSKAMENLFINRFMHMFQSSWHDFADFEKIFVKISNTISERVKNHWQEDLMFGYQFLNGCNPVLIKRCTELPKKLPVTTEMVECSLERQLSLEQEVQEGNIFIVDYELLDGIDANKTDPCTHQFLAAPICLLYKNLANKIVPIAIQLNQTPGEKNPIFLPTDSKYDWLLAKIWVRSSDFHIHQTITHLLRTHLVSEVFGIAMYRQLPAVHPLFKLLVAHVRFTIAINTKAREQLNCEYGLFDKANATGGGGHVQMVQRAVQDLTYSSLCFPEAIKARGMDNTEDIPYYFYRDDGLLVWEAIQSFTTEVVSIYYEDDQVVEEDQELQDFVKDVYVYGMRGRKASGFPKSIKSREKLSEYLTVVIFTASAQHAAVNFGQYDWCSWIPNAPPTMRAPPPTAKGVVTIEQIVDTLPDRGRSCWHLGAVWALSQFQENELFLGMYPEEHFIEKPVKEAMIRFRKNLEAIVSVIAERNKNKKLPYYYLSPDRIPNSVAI
Put plainly: LTB4 formed after stimulation with Ca-ionophor, determined by reversed phase HPLC, as a measure of the lipoxygenase activity of PMN. Type of data set: cell-based, rats. The conditions noted are these: LTB4 formation, Ca-ionophor stimulated rat PMN. The method, then:
The pharmacological action of the substances according to the invention was determined by the following method:
The leucotriene B4 (LTB4) formed after stimulation with Ca-ionophor is determined by means of reversed phase HPLC in accordance with the method of Borgeat et al. Proc. Natl. Acad. Sci. USA, 76, 215 (1982) as a measure of the lipoxygenase activity of PMN in rats.

A short description of data set [2]: appearance of the isolated salt in air (hygroscopicity). Conditions: after lyophilization. Type of data set: physicochemical. The method, then:
3 g of bis[4-(Δ^2 -thiazolin-2-yl)aminophenyl]sulphide are taken up in 0.6 ml of 1N HCl and 10 ml of H2 O and the mixture is lyophilized.

Structures can show the parent of a compound that is named as a salt.

For the compound `c1cc(Sc2ccc(NC3=NCCS3)cc2)ccc1NC1=NCCS1` [Example 2, Bis[4-(Δ^2-thiazolin-2-yl)aminophenyl]sulphide], it took 0.349 µM to reach half-maximal inhibition in data set [1] (IC50). In other words, the sub-micromolar range. Take `c1cc(Sc2ccc(NC3=NCCS3)cc2)ccc1NC1=NCCS1` [Example 3, Bis[4-(Δ^2-thiazolin-2-yl)aminophenyl]sulphide HCl salt]: in data set [2], the hygroscopicity entry is recorded as “Hygroscopic crystals which deliquesce in air”. Besides, in data set [1], half-maximal inhibition (IC50) required 0.776 µM. `c1ccc(C2CSC(Nc3ccc(Sc4ccc(NC5=NC(c6ccccc6)CS5)cc4)cc3)=N2)cc1` (stereo not drawn) [Example 4, Bis[4-(4-phenyl-Δ^2-thiazolin-2-yl)aminophenyl]sulphide] had an IC50 in data set [1] of 0.501 µM. `COC(=O)Cc1cc(NC2=NCCS2)ccc1Sc1ccccc1` [Example 10, Methyl[2-phenylthio-5-(Δ^2-thiazolin-2-yl)amino]phenylacetate] had an IC50 in data set [1] of 0.209 µM. This IC50 lies about 2.4-fold lower than the previous one. Same read-out and setting: with `c1ccc(Sc2ccc(NC3=NCCS3)cc2)cc1` [Example 12] the figure was 0.0978 µM.

In data set [1], `CN1CCSC1=Nc1ccc(Sc2ccc(N=C3SCCN3C)cc2)cc1` [Example 17, Bis[4-(3-methyl-thiazolidin-2-imino)phenyl]sulphide] had an IC50 of 0.265 µM. In data set [1], `CC1CN=C(Nc2ccc(Sc3ccc(NC4=NCC(C)S4)cc3)cc2)S1` (stereo not drawn) [Example 22, Bis[4-(5-methyl-Δ^2-thiazolin-2-yl)aminophenyl]sulphide] had an IC50 of 0.123 µM. Still for that read-out and setting: with `Cc1ccc(S(=O)(=O)Nc2ccc(Sc3ccc(NC4=NCCS4)cc3)cc2)cc1` [Example 29, 4-(Δ^2 -Thiazolin-2-yl)amino-4'-tosylaminodiphenyl sulphide] the figure was 0.145 µM.

What is called IC50 is the concentration at which inhibition is half-maximal. Lower therefore signals higher potency.
